# Values joined by “and” are separate entries in the source; they are usually repeats but may differ in a detail not shown here. Equal entries are not always repeated. Active and inactive are the calls of the source.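 The calls were made as follows: active = compounds giving half or more protection of infected cells from virus-caused growth loss, again on retest; inactive = the rest.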 Where a SMILES comes first, the peptide text is derived from it. The star is where a group is joined. Cbz = O=C(OCc1ccccc1)*; Boc = CC(C)(C)OC(=O)*
# Test system: CEM cells HIV-1 protection, formazan growth assay
# Assay: NCI AIDS Antiviral Assay
# Settings: for IC50: measured here: growth of uninfected CEM cells
# Outline: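 Steps: treat uninfected and HIV-1-infected human CEM cells at five drug levels; quantify growth by soluble formazan; retest any compound reaching 50% protection; classify actives from the retest.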
SMILES,EC50 [µM],IC50,outcome
CCOC(=O)CCC(NC(=O)C(CC(=O)OC)NC(=O)OCc1ccccc1)C(=O)NC(CC(=O)OC)C(=O)NC(CCC(=O)OCC)C(=O)NC(CC(=O)OC)C(=O)NC(CCC(=O)OCC)C(=O)NC(CC(=O)OCC)C(=O)OCC (configuration not stated) (Cbz-D(OMe)E(OEt)D(OMe)E(OEt)D(OMe)E(OEt)D(OEt)-OEt; configuration not given here),> 200,> 200 µM,–
CCOC(=O)c1ccc[c]([Sb](=[O])([OH])[OH])c1,4.9,398 µM,–
CC(=O)c1ccc(NC(=O)COC(=O)c2cccc3c(=O)c4ccccc4[nH]c23)cc1,–,–,inactive
CC(=O)N1C(=O)C2(Nc3cccnc3N2)c2ccccc21 (configuration not stated),> 100,> 100 µM,–
ClC1OC(Cl)(Cl)C(Cl)(Cl)OC1(Cl)Cl (configuration not stated),–,–,inactive
CC(C)C(/C=C/c1ccc(Br)cc1)=N\NC(N)=O,> 32.4,> 32.4 µM,–
Cn1c2ccccc2c(=NNc2ccc(C(=O)O)cc2)c2ccccc21,> 200,13.8 µM,–
COC1OC2COc3ccccc3OC2C(NC#N)C1OC (configuration not stated),> 145,28.8 µM,–
CC(C)(C)CP(=S)(CC(C)(C)C)CC(C)(C)C,> 117,> 117 µM,–
CC[C@@H]1CC2CC3c4[nH]c5ccccc5c4CCN(C2)C31 (some centres not stated),–,–,inactive
N#C/C(=C/C=C/c1ccco1)C(N)=O,> 200,> 200 µM,–
COc1ccc2nc3cc(Cl)ccc3c(NCCCNCCCNc3c4ccc(Cl)cc4nc4ccc(OC)cc34)c2c1,> 2,0.0148 µM,–
CCCC=NCCOC(=S)[S-].CCCC=NCCOC(=S)[S-].[Zn+2],> 100,56.2 µM,–
O=C(c1ccccc1)N1C2CCC1C(C(F)(F)F)=C2C(F)(F)F,–,–,inactive
COC(=O)c1ccccc1/C=C1\Cc2c(C)cc(C)cc2C1=O,–,–,inactive
CCOC(=O)N1C2c3ccccc3C(c3ccccc32)N1C(=O)OCC,> 56.2,> 56.2 µM,–
C[N+](C)(C)CC(=O)N/N=C(/Cc1cc(=O)oc2cc(O)ccc12)C(=O)Nc1ccc(Cl)cc1,> 51.3,> 51.3 µM,–
O=c1c2ccccc2c2c3c1cccc3c1cccc3c(=O)c4ccccc4c2c31,> 7.08,> 7.08 µM,–
CCOc1c(Cc2ccccc2)c(=O)n2c3ccccc3n3c(=O)n(C)c(=O)c1c23,> 6.46,> 6.46 µM,–
Cc1cc(Cl)ccc1NC(=O)/C(Cl)=C(/Cl)C(=O)O,–,–,inactive
COc1ccc(/C(=N/OCCCC(=O)O)c2cccs2)cc1,–,–,inactive
O=c1cc(NNc2ccc3ccccc3c2)[nH]c(=S)[nH]1,> 200,38.9 µM,–

SMILES,EC50 [µM],IC50,outcome
CC(C)(C)NC(=O)N1N=C(c2ccccc2)C1c1ccccc1 (configuration not stated),> 200,26.9 µM,–
COC(=O)Cc1c([C@@H]2Nc3ccccc3[C@H]2CC(=O)OC)[nH]c2ccccc12,> 200,30.2 µM,–
CC1=CC(=O)C2[C@@H](C1)C1(C)C(=O)C34OC(=O)C[C@@](C)([C@H]1C(=O)[C@@H]2C)[C@]3(C)CC[C@]12C[C@@H](C)C[C@H](CN41)O2 (some centres not stated),–,–,inactive
CC(O)C1(CNc2cc(Cl)nc(N)n2)CCCCC1 (configuration not stated),> 200,85.1 µM,–
CC(C)CCOC(=O)NC(Nc1ccc(F)cc1)(C(F)(F)F)C(F)(F)F,–,–,inactive
N#C/C(=C/c1ccccc1)c1ccccc1,> 200,39.8 µM,–
CCOC(=O)C#CCC/C=C(\C)COC1CCCCO1 (configuration not stated),–,–,inactive
COC(=O)c1cc(C(=O)OC)c(CC(=O)C(=O)Nc2ccc(Cl)c(C(F)(F)F)c2)nc1CC(=O)C(=O)Nc1ccc(Cl)c(C(F)(F)F)c1,> 200,148 µM,–
COc1cc(Cc2ccc3c(c2C#N)N(C)c2ccccc2S3)cc(OC)c1OC,> 200,3.63 µM,–
OC(C#CCN1CCCC1)(c1ccccc1)c1ccccc1Cl (configuration not stated),> 200,70.8 µM,–
COc1cc(C)cc2c1C(=O)C(Br)CC2 (configuration not stated),–,–,inactive
N#C/C(=C\c1cccc(Cl)c1)C(=O)c1ccccc1,> 112,55 µM,–
COC(=O)NC1=Nc2ccccc2-c2ccccc2N1,> 200,123 µM,–
O=C(/C=C/c1cc2ccccc2o1)N1CCN(c2ccccn2)CC1,> 200,191 µM,–
CN(C)CCNC(=O)c1ccccc1Nc1c(Cl)cccc1Cl,> 200,39.8 µM,–
COc1ccc(C(F)(F)F)cc1NC(=O)O/N=C(/Cl)C(C)C,> 20,3.72 µM,–
COc1cc(OCc2ccc3nc(-c4ccccc4)c(Cl)nc3c2)cc(OC)c1OC,> 200,> 200 µM,–
O=C(O)CC(c1ccccc1)c1ccccc1,> 794,437 µM,–
Cc1ccc(S(=O)(=O)N/N=C2\C=CC3(CC2)C(=O)N(I)c2ccccc23)cc1 (configuration not stated),–,–,inactive
COc1cc(SSc2ccc(N)c(OC)c2)ccc1N,> 200,26.3 µM,–
CCSc1nc2n(c(=S)n1)CCN2C,> 708,138 µM,–
CN(c1ccc(Cl)cc1)S(=O)(=O)c1ccccc1,> 200,50.1 µM,–

SMILES,EC50 [µM],IC50,outcome
Cc1cccc(NC(=O)NCCOC(=O)OCCNC(=O)Nc2cccc(C)c2C)c1C,> 200,> 200 µM,–
N=C(N)SCc1ccc2c(c1)S(=O)(=O)c1ccccc1O2,> 200,13.2 µM,–
Cc1ccc(S(=O)(=O)n2cc(C=O)c(-c3cn(S(=O)(=O)c4ccc(C)cc4)cc3-c3cn(S(=O)(=O)c4ccc(C)cc4)cc3C=O)c2)cc1,> 200,19.5 µM,–
CNC(=O)CNC(=O)CCC(=O)N(C)C,> 200,> 200 µM,–
CCN(CC)CCN1CC(=O)N2CCCCN2C(=O)C1,> 200,> 200 µM,–
O=C1C2C=CC(C2)C(c2ccc(O)cc2)N1O (configuration not stated),> 776,> 776 µM,–
CCNC(=O)Sc1ccccc1C(=O)NCCC(N)=O,1.1,102 µM,–
O=C(/C=C/c1ccccc1Cl)c1ccccc1Cl,> 7.24,> 7.24 µM,–
COc1ccc2c(c1)OCC1Cc3cc4c(cc3OC21)OCO4 (configuration not stated),–,–,inactive
Oc1ccc(Cl)cc1-c1cc(-c2ccccc2)nc(=S)[nH]1,> 200,170 µM,–
CC1(O)CC2C(CC1SCc1ccccc1)C2(C)C (configuration not stated),> 200,34.7 µM and 20 µM,–
O=C(NC1CCCCC1)/C(=C\c1ccc2c(c1)OCO2)NC(=O)c1ccccc1,> 200,> 200 µM,–
CCOC(=O)Cc1nc2sc3c(c2c(=O)[nH]1)CCCC3,> 324,> 324 µM,–
COc1cc(N=Nc2cc(S(=O)(=O)O)c3cccnc3c2O)ccc1-c1ccc(N=Nc2cc(S(=O)(=O)O)c3cccnc3c2O)cc1OC,100,182 µM,–
CCC1(C)N=C(C(N)=O)c2ncn(N=C(C)C)c2N1 (configuration not stated),> 200,> 200 µM,–
CC1CC(C)c2c(O)c3c(c(O)c2N1)C(=O)c1ccccc1C3=O (configuration not stated),> 16.2,8.71 µM,–
Cc1c(Cc2ccccc2)n(C(C)OCCN2C(=O)c3ccccc3C2=O)c(=O)[nH]c1=O (configuration not stated),> 200,> 200 µM,–
CCn1nc(C(=O)O)c(=O)c2cc3c(cc21)OCO3,> 200,> 200 µM,–
CCOC(=O)C(C)(c1c[nH]c2ccccc12)c1c[nH]c2ccccc12,> 200,19.5 µM,–
COc1cc(N/N=C/C#N)cc(OC)c1OC,> 45.7,2.24 µM,–
COc1cccc(/C(C=O)=C(\Cl)c2ccc(OC)c(OC)c2)c1,> 21.9,11.5 µM,–
COC(=O)C(Cc1ccccc1)NC(=O)C(CS)NC(=O)OC(C)(C)C (stereo not drawn) (Boc-Cys-Phe-OMe; configuration not given here),> 200,9.55 µM,–

SMILES,EC50 [µM],IC50,outcome
CCOC(=O)Cc1ccc(-c2cn3c(n2)sc2ccccc23)cc1,> 200,> 200 µM,–
CCOC(=O)Nc1nc2c([N+](=O)[O-])c(Br)n(C)c2s1,–,–,inactive
c1nncn1C12C3C4C5C3C1C5C42 (configuration not stated),> 200,> 200 µM,–
N#Cc1ccc(Oc2nc3ccccc3nc2-c2ccccc2)cc1,> 200,> 200 µM,–
CON(C)C(=O)CCCO,> 1700,> 1700 µM,–
CN1Cc2ccccc2C2(COc3ccccc3C2=O)C1 (configuration not stated),–,–,inactive
Cc1cc2c3ccccc3n(C)c2c2c1C(=O)c1ccccc1C2=O,> 7.94,> 7.94 µM,–
Cc1ccc(/C=N/Nc2cnccn2)s1,> 200,> 200 µM,–
CN(/N=C/c1cccc2cccnc12)c1c([N+](=O)[O-])cc([N+](=O)[O-])cc1[N+](=O)[O-],–,–,inactive
COc1ccc(C2c3cc4c(cc3OC(N3CCOCC3)C2C)OCO4)c(OC)c1 (configuration not stated),> 200,3.31 µM,–
O=C1c2ccoc2C(=O)c2oc(=O)ccc21,> 102,5.75 µM,–
O=C(/C=C/c1ccco1)c1cccc(C(=O)/C=C/c2ccco2)n1,> 200,9.55 µM,–
COc1cc(N=Nc2ccccc2)cc(/C=N\[N-]C(N)=S)c1[O-].COc1cc(N=Nc2ccccc2)cc(/C=N\[N-]C(N)=S)c1[O-].[Fe+4],> 26.3,> 26.3 µM,–
Cc1ccc(S(=O)(=O)N/N=C2/CC[C@H](C(C)(C)C)C[C@@H]2C)cc1,> 200,21.9 µM,–
COc1cccc(/C=C2\C(=O)N(C(=O)c3ccc(NC(C)=O)cc3)N=C2C)c1,> 36.3,> 36.3 µM,–
O=C(/C=C/c1c(O)ccc2ccccc12)c1ccccc1Cl,> 56.2,28.2 µM,–
Cc1ccc(NC(=S)Nc2ccc(C)cn2)nc1,> 200,> 200 µM,–
Cc1cc(Br)cc(C)c1NC(=O)C(=O)C1C(=O)C(CC2C(=O)c3ccccc3C2=O)C(=O)CC1(C)C (configuration not stated),> 18.2,> 18.2 µM,–
O=C1C[C@@H]2[C@@H](CCC23CCCC3)N1,–,–,inactive
O=C(Nc1ccccc1)c1ccccc1[Se][Se]c1ccccc1C(=O)Nc1ccccc1,5.37,9.55 µM,–
COC1CCC(=O)N1CN(C(C)=O)c1ccc(C)cc1 (configuration not stated),–,–,inactive
COc1cc(O)c2c(c1C)C(C)(O)c1c(C)coc1C2=O (configuration not stated),–,–,inactive

# Reference: PubChem BioAssay AID179 (DTP/NCI, 2004)
